For 15 compounds, inhibition and IC50 results are on record in ChEMBL document CHEMBL4000242, “Discovery of furan carboxylate derivatives as novel inhibitors of ATP-citrate lyase via virtual high-throughput screening” (Bioorg Med Chem Lett, 2017).

What is called inhibition is the drop in the measured response relative to a control, in per cent. As a reminder, the IC50 is the point on the concentration scale where inhibition reaches its midpoint. Higher therefore signals lower potency.

Assay [1] deals with T1, ATP-citrate synthase (Homo sapiens) (UniProt P53396).
T1 sequence (whole entry): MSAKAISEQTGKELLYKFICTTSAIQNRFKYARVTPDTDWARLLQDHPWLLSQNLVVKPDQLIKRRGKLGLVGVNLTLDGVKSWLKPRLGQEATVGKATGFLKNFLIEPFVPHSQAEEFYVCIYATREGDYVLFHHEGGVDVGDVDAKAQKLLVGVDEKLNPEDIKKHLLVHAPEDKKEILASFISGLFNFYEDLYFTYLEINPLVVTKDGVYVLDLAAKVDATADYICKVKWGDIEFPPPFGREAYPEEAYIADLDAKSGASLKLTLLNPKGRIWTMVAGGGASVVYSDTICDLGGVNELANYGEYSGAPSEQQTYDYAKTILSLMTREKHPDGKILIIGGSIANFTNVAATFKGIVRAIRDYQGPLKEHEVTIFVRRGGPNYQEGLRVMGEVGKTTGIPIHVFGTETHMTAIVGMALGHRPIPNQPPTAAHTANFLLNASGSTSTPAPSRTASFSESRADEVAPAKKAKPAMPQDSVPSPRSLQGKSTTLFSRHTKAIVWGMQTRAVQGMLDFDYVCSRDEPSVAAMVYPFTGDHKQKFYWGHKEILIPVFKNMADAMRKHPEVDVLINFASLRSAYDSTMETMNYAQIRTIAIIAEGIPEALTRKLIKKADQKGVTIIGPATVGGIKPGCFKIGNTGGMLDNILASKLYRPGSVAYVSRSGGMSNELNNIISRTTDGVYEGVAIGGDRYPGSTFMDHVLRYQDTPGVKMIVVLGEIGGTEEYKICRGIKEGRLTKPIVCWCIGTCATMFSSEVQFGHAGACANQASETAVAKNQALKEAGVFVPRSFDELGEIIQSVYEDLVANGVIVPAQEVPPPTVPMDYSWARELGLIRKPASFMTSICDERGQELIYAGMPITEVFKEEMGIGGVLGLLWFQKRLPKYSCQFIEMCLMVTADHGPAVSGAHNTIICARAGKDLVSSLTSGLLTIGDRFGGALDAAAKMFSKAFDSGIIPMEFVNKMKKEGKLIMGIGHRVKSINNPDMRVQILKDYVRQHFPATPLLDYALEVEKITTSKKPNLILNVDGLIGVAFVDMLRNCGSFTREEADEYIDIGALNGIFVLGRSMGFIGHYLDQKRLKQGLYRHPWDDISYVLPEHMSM
Briefly: Competitive inhibition of ATP citrate lyase (unknown origin) using sodium citrate as substrate by ADP-Glo luminescence assay.

For assay [2], the target named is T1, ATP-citrate synthase (Homo sapiens). Description: Inhibition of ATP citrate lyase (unknown origin) at 100 uM using sodium citrate as substrate in presence of CoA/ATP by ADP-Glo luminescence assay relative to control. A general note: In ADP-Glo the light output rises with the ADP produced.
The target is the same in assay [3]. Description: Inhibition of ATP citrate lyase (unknown origin) at 10 uM using sodium citrate as substrate in presence of CoA/ATP by ADP-Glo luminescence assay relative to control.
For assay [4], the target named is T2, ATP-citrate synthase (Homo sapiens, UniProt P53396).
T2 sequence (P53396 whole entry): T1 sequence (whole entry)
Briefly: Inhibition of ATP citrate lyase (unknown origin) using sodium citrate as substrate by ADP-Glo luminescence assay.

Each structure is given as a SMILES string. Active and inactive are the calls of the source. No cut-off for these calls is given here.

Turning to `O=C(O)C[C@@](O)(C(=O)O)[C@H](O)C(=O)O`, in assay [1], the inhibition entry is “Active”.

For the compound `Cc1oc(C(=O)O)cc1COc1ccc2c(c1)oc(=O)c1ccccc12`, the inhibition turned out to be 64% in assay [2] and 3% in assay [3].

As to `Cc1oc2ccc(OC(C(=O)O)c3ccccc3)cc2c1C(=O)O` (centres undefined), the inhibition in assay [2] is 9%; in assay [3], 6%.

`CCc1ccc(S(=O)(=O)Nc2cc3c(C(=O)O)c(C)oc3c3ccccc23)cc1` came in with an IC50 in assay [4] of 13.8 µM. The inhibition in assay [2] stood at 97%; in assay [3], 42%.

Turning to `Cc1c(OCc2ccc(C(=O)O)o2)ccc2c3c(c(=O)oc12)CCCC3`, the figures for the inhibition in assay [2] and in assay [3] were 88% and 18%, respectively.

In the case of `O=C(O)c1ccc(COc2ccc3c(c2)oc(=O)c2ccccc23)o1`, the inhibition in assay [2] was 49%; in assay [3] it was 9%.

`O=C(O)C[C@@](O)(C[C@H](O)CCCCCCc1ccc(Cl)cc1Cl)C(=O)O`: the inhibition result in assay [1] was “Active”.

Take `CCCCCCc1cc2c3c(c(=O)oc2cc1OCc1cc(C(=O)O)oc1C)CCCC3`: the values for the inhibition in assay [2] and in assay [3] were 100% and 95%, respectively.

As to `Cc1ccc(S(=O)(=O)Nc2cc3c(C(=O)O)c(C)oc3c3ccccc23)cc1`, the inhibition is 42% in assay [2] and 12% in assay [3].

As for `Cc1oc2c(cc(NS(=O)(=O)c3ccc(C(C)(C)C)cc3)c3ccccc32)c1C(=O)O`, the inhibition in assay [2] turned out to be 59%; in assay [3], 16%.

As for `Cc1oc(C(=O)O)cc1COc1ccc2c(oc(=O)c3ccccc32)c1C`, the inhibition is 84% in assay [2] and 32% in assay [3].

On to `Cc1oc(C(=O)O)cc1COc1ccc2c3c(c(=O)oc2c1C)CCCC3`, for which the inhibition came to 90% in assay [2] and 17% in assay [3].

With `Cc1oc(C(=O)O)cc1COc1ccc2c(C)c(Cc3ccccc3)c(=O)oc2c1`, half-maximal inhibition in assay [4] (IC50) was put at 11.9 µM. In addition, the results for the inhibition in assay [2] and in assay [3] were 101% and 45%, respectively.

With `Cc1oc2c(cc(NS(=O)(=O)c3ccc(F)cc3)c3ccccc32)c1C(=O)O`, the inhibition in assay [2] worked out at 95%; in assay [3] it was 28%.

Compound `COc1ccc(-c2ccccc2)cc1NS(=O)(=O)c1cc(Cl)cc(Cl)c1O` came in with an IC50 in assay [4] of 0.377 µM.
